In experiment [1] the test system is citrate plasma. Nature of the experiment: prothrombin time (PT) plasma clotting test. It counts as biochemical. The note with it: Table 3; twofold prolongation compared to control; read-out: A: anticoagulant IC50, PT. The procedure:
(§1) Anticoagulant activity (i.e. inhibition of the proteolytic reactions in the process) is measured by anticoagulant tests, e.g. in the thrombin time (TT), activated partial thromboplastin time (APTT) and prothrombin time (PT) tests [E. J. W. Bovie et al., Mayo Clinic Laboratory Manual of Haemostasis; W. B. Saunders Co., Philadelphia (1971)]. Plasma, inhibited in spontaneous coagulation, e.g. citrate-plasma, is made to coagulate and the required coagulation time is measured. Upon the action of anticoagulants the coagulation time is prolonged proportionally to the inhibition of the reaction(s) in the process. The anticoagulant effect can be characterised by the substance concentration required to prolong the coagulation time twofold compared to the control (IC50). The effect of anticoagulants on individual coagulant proteases is measured by the amidolytic method [R. Lottenberg et al., Methods in Enzymol. 80, 341 (1981); G. Cleason, Blood Coagulation and Fibrinolysis 5, 411 (1994)]. The isolated active factor (e.g. thrombin, fXa) and its chromogen or fluorogen peptide-amide substrate are reacted in the presence or absence of the inhibitor, resp. The enzyme inhibiting action is characterised by the inhibitory constant (IC50) measured during amidolysis.
(§2) In the TT test coagulation is initiated by the thrombin added to the citrate plasma. In the system 22 pmol/ml of thrombin is functioning and its inhibition can be measured on the fibrinogen (one of the natural substrates of thrombin) in the presence of plasma components. In the APTT and PT tests the full coagulation process takes place. Depending on the activator fX is activated either by the extrinsic or the intrinsic pathway. The generated fXa activates prothrombin to thrombin which, in turn, triggers plasma coagulation. The coagulation time is prolonged if the enzymes or one of them is inhibited by the inhibitor. In the APTT and PT tests at most 40 pmol/ml Xa can be generated (this is the full amount of factor X present in both systems) while 150 pmol/ml (APTT) and 350 pmol/ml (PT) of thrombin are generated [B. Kaiser et al., Thromb. Res. 65, 157 (1992)].
(§3) The in vitro anticoagulant effects of the compounds of general formula (I) was measured by the prothrombin time (PT), activated partial thromboplastin time (APTT) and thrombin time (TT) tests [D. Bagdy et al., Thromb. Haemost. 67, 325 (1992)]. The fxa-inhibiting effect of the compounds was also determined using the Bz-Ile-Glu-Gly-Arg-pNA chromogen substrate (see method M6).

For experiment [2], the system named is citrate plasma. Nature of the experiment: activated partial thromboplastin time (APTT) plasma clotting test. It counts as biochemical. The note with it: Table 3; twofold prolongation compared to control; read-out: A: anticoagulant IC50, APTT. The procedure:
as §1, §2, §3

In another experiment the target is thrombin (Homo sapiens, UniProt P00734). Nature of the experiment: thrombin time (TT) plasma clotting test. It counts as biochemical. The following applies: Table 3; twofold prolongation compared to control; read-out: A: anticoagulant IC50, TT. The procedure: as §1, §2, §3
The target in the next experiment is urokinase (UK) (Homo sapiens, UniProt P00749). Nature of the experiment: fibrin-plate method, plasmin formation induced by urokinase. It counts as biochemical. From the text:
The inhibitory effect of the new compounds of the invention on plasmin (PL) as well as on plasmin formation induced by tissue plasminogen activator (tPA) and urokinase (UK) was examined by the fibrin-plate method [D. Bagdy et al.: Thromb. Haemost. 67, 325 (1992)]. Compounds C1 and C5 served as controls. […] V. Jackson et al.: J. Cardiovasc. Pharmacol. 21, 587 (1993))]. In Table 4 the results obtained with the new compounds 1 and 2 as well as those with controls C1 and C5 are presented as an example.

Experiment [3] has as its system New Zealand white rabbits. Nature of the experiment: ex vivo TT in citrate plasma of rabbits after p.o. dosing. More on the design: species or system rabbit. The following applies: p.o. 5 mg/kg. On the procedure:
The anticoagulant and platelet aggregation inhibiting effect of the compounds of general formula (I) was studied in New Zealand white rabbits ex vivo according to D. Bagdy et al. [Thromb. Haemost. 67, 357 (1992)]. The compounds were dissolved in buffered isotonic saline solution and administered i.v. (0,04-5.0 mg/kg) or by infusion (0.25-5.0 mg/kg/h) or subcutaneously (0.5-6.0 mg/kg) or p.o. (2.5-20 mg/kg). The effect of the compounds was detectable already within 30 minutes following p.o. administration, peak values were attained after 60-180 minutes and the therapeutic level was maintained dose-dependently for 3→6 hours.
The in vivo effect of ethoxycarbonyl-3-cyclobutyl-D-alanyl-L-prolyl-L-arginine aldehyde (1) is presented in detail in Tables 6 and 7. The corresponding values of C1 are listed as controls. The compound was administered p.o. in doses of 5 mg/kg. The blood samples drawn from the caudal vein in every 30-60 minutes were analysed. The whole blood clotting time (WBCT) and the inhibition of thrombin-induced blood platelet aggregation (PAI) were determined. The activated partial thromboplastin time (APTT) and the thrombin time (TT) in the citrate plasma obtained from the blood sample were also measured. The APTT and TT values are compiled in Table 6 and the WBCT and PAI values in Table 7.

pIC50: −log10 of the molar value.

With `CCOC(=O)N[C@H](CC1CCC1)C(=O)N1CCC[C@H]1C(=O)N[C@H](C=O)CCCNC(=N)N` [Example 1, Ethoxycarbonyl-3-cyclobutyl-D-alanyl-L-prolyl-L-arginine aldehyde], the negative logarithm of the IC50 (pIC50) with citrate plasma [1] was 5.94; in the experiment with citrate plasma [2], 6.46; at thrombin, 6.96; against urokinase (UK) (fibrin plate, hydrolysed area reduced to 50% of control), 3.92. Besides, the “B: relative efficiency, UK” value at urokinase (UK) (related to the activity of C1 (1/IC50 = 1)) worked out at 0.7. In addition, the “activity against UK, times lower than that of compound C5” value at urokinase (UK) (text b147, third of three enzymes) is given as 39 times. The “TT relative clotting time” value was 1.0 in experiment [3] (0 min); 8.30 ± 5.67 in experiment [3] (30 min); 9.04 ± 5.50 in experiment [3] (45 min); 9.28 ± 5.45 in experiment [3] (60 min); 13.58 ± 5.43 in experiment [3] (90 min); 16.33 ± 5.89 in experiment [3] (120 min). Moreover, the “TT relative clotting time” value in experiment [3] (180 min) is recorded as 6.95 ± 3.73; in experiment [3] (240 min), 2.03 ± 0.42; in experiment [3] (300 min), 1.77 ± 0.50.
